Reference: publication PMC8760230, “Translational Development of a Zr-89-Labeled Inhibitor of Prostate-specific Membrane Antigen for PET Imaging in Prostate Cancer” (Molecular Imaging and Biology, 2021)
Entries after “also recorded” stand apart in the source; their conditions may differ. Where two headings read alike, the source gives them in different places. Each block holds one compound with its values, some of them ahead of it.

Assays:
[1] = system: LNCaP tumor xenograft; experiment: Small-animal PET in mice bearing an LNCaP tumor xenograft, with and without blocking by 2-PMPA; conditions: 2-PMPA 23 mg/kg, n=3 per group
[2] = molecular target: T1, PSMA (Homo sapiens, UniProt Q04609); experiment: Equilibrium dissociation constant Kd / Bmax, saturation binding on PSMA-positive LNCaP cells; conditions: for Kd: 3 h incubation, 0.25-75 nM, nonspecific binding with 2-PMPA; for Bmax (maximum achievable concentration on 10^6 tumor cells): Scatchard plots
T1 construct: host or cells: LNCaP cells
Protocol: The equilibrium dissociation constant describing the interaction of the radiolabeled ligands with the PSMA binding sites was determined in PSMA-positive LNCaP cell lines (Cell Line Service, Eppelheim, Germany). LNCaP cells were seeded at a density of 10^6 cells/well on a 6-well plate (Corning, ME, USA) and incubated under 5% CO2 at 37 °C for 48 h with medium (minimum essential medium Eagle supplemented with 2 mM L-glutamine, 0.1 mM non-essential amino acids (NEAA), 1.0 mM sodium pyruvate, 10% fetal bovine serum, 100 U/ml penicillin, and 100 µg/ml streptomycin) (Lonza, Verviers, Belgium) in a humidified incubator (Thermo Heracell 150 CO2-Incubator, MA, USA). To determine the nonspecific binding, the medium was removed from selected wells, and 1 ml of a solution of 0.1 mM of 2-(phosphonomethyl)-pentanedioic acid (2-PMPA) in fresh medium was added. […] The plates were then incubated under 5% CO2, at 37 °C for 1 h. After that, the medium was removed and the cells incubated under the same incubation conditions for 3 h with different concentrations (0.25 nM, 2.5 nM, 5 nM, 10 nM, 25 nM, 50 nM, and 75 nM) of the radiotracer under investigation in 1 ml fresh medium.
After 3 h, the cells were washed three times with 1 ml PBS, and the cells were finally lysed by adding 1 ml of 1 M NaOH and incubating them for 10 min at room temperature. All samples were measured with a gamma counter (Nuklear Medizintechnik Dresden Isomed 100, Dresden, Germany) and were decay-corrected. The equilibrium dissociation constant (Kd) and the maximum density of receptors (Bmax) were calculated by non-linear regression using GraphPad Prism 8.0.2 (GraphPad Software, San Diego, USA).

[3] = system: prostate cancer relapse; experiment: First-in-human PET/CT scan in a patient with biochemical recurrence of prostate cancer; conditions: 2 h p.i., 343 MBq
Protocol: The patient had given their written informed consent for PET imaging and the scientific evaluation of their data. All procedures were performed in accordance with the Institutional Review Board and the regulations of the regional authorities in Cologne. The kidney dose was estimated on the basis of two PET scans. The following assumptions were made for the estimation: Between time 0 (injection) and the first measuring point, the time-activity-curve follows a constant progression. All measuring points were integrated numerically using trapezoidal approximation. From the last measuring point to infinity, a mono-exponential function was fitted and integrated. As the effective half-life could not be accurately determined from two measurement points, the physical half-life of Zr-89 was used instead.

[4] = system: LNCaP cells; experiment: Internalization in LNCaP cells; type: cell-based; conditions: n=3
Protocol: (§1) The cell binding determined in these experiments is the sum of specific and nonspecific cell binding. To determine the values for nonspecific cell binding and internalization, all experiments were additionally performed in the presence of 2-PMPA.
(§2) The plates were incubated for 1 h; after which, 0.75 pmol of the radiotracer to be examined was added to 1 ml of fresh medium. The cells were incubated for 30 min, 1, 2, 3, and 5 h. At each time point, the supernatant was removed and the cells washed with 1 ml of PBS. To dissociate the receptor-bound radioligand, the cells were washed twice with 1 ml of a 0.1 M glycine buffer solution at pH 2.8 for 5 min. The 0.1 M glycine–HCl buffer dissociated all the surface-bound complexes. The cells were then washed with 1 ml of PBS, and the internalized fraction was determined by solubilizing the cells with 1 ml of 1 M NaOH and incubating them for 10 min at room temperature. The radioactivity collected from the culture medium, 0.1 M glycine (surface-bound), and 1 M NaOH (internalized fraction) was measured in a gamma counter and decay-corrected. Cell binding was calculated from the surface-bound (0.1 M glycine) and the internalized fraction (1 M NaOH). The internalized fraction was expressed as a percentage of cell binding (internalization to cell-bound radioactivity ratio). All cell uptake experiments were run in triplicate.

[5] = system: LNCaP cells; experiment: Cellular uptake (specific cell binding) in LNCaP cells; type: cell-based; conditions: n=3
Protocol: as §1, §2

[6] = system: LNCaP tumor xenografts; conditions: for Tumor/blood ratio / Tumor/kidneys ratio / Tumor/liver ratio / Tumor/muscle ratio: LNCaP xenograft mice; for Biodistribution Blood / Biodistribution Bone / Biodistribution Heart / Biodistribution Intestine / Biodistribution Kidneys / Biodistribution LNCAP-tumor / Biodistribution Lung / Biodistribution Muscle / Biodistribution Prostate / Biodistribution Spleen / Biodistribution Thyroid / Biodistribution Liver: i.v. 30 pmol, n=5

T1 sequence (Q04609 whole entry): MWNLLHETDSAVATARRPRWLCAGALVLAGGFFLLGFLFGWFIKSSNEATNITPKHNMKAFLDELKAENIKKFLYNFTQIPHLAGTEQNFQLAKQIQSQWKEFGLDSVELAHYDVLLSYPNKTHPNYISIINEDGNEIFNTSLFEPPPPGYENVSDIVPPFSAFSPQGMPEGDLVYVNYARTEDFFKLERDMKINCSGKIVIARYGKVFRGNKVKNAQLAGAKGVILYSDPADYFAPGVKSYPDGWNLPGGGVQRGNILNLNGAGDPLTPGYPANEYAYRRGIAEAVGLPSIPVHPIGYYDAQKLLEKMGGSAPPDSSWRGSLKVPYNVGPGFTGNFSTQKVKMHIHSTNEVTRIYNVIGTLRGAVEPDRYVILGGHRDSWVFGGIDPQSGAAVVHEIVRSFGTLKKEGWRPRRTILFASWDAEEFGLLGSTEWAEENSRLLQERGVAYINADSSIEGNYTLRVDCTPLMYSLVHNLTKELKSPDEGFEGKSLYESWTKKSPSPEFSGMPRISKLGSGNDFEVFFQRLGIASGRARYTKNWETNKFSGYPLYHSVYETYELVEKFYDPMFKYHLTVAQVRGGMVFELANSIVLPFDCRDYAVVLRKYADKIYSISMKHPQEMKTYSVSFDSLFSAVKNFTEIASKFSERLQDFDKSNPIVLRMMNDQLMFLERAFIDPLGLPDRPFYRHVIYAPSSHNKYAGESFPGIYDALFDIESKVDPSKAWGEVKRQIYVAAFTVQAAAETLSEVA

Structure (SMILES): O=C(O)CCC(CP(=O)(O)O)C(=O)O (stereo not shown) [2-PMPA, 2-(phosphonomethyl)-pentanedioic acid]
- Effect of blocking on accumulation of [^89Zr]Zr-PSMA-DFO radioactivity in the liver ([1]; 1 h, 21 h and 48 h): significantly increased; also recorded: radioactivity accumulated in the liver
- Effect of blocking on accumulation of [^89Zr]Zr-PSMA-DFO radioactivity in the kidneys ([1]; significant after 1 h): significantly reduced
- Effect of blocking on tumor accumulation of [^89Zr]Zr-PSMA-DFO ([1]; significant after 1 h): strongly reduced; also recorded: markedly reduced

- Kd [2]: 5.07 ± 0.45 nM
- Bmax (maximum achievable concentration on 10^6 tumor cells) [2]: 2702 ± 61 fmol/10^6 cells
- SUVmax left prostate lobe [3]: 4.63
- SUVmax right prostate lobe [3]: 5.37
- Tumor/blood ratio ([6]; 2 h p.i.): 142 ± 24
- Tumor/kidneys ratio ([6]; 2 h p.i.): 0.74 ± 0.08
- Tumor/liver ratio ([6]; 2 h p.i.): 4.7 ± 1.2
- Tumor/muscle ratio ([6]; 2 h p.i.): 282 ± 71
- Biodistribution Blood ([6]; 2 h p.i.): 0.15 ± 0.04 %ID/g
- Biodistribution Bone ([6]; 2 h p.i.): 0.18 ± 0.03 %ID/g
- Biodistribution Heart ([6]; 2 h p.i.): 0.12 ± 0.02 %ID/g
- Biodistribution Intestine ([6]; 2 h p.i.): 0.89 ± 0.18 %ID/g
- Biodistribution Kidneys ([6]; 2 h p.i.): 27.2 ± 2.6 %ID/g
- Biodistribution LNCAP-tumor ([6]; 2 h p.i.): 20.2 ± 2.4 %ID/g
- Biodistribution Lung ([6]; 2 h p.i.): 0.18 ± 0.01 %ID/g
- Biodistribution Muscle ([6]; 2 h p.i.): 0.07 ± 0.02 %ID/g
- Biodistribution Prostate ([6]; 2 h p.i.): 0.22 ± 0.03 %ID/g
- Biodistribution Spleen ([6]; 2 h p.i.): 2.15 ± 0.45 %ID/g
- Biodistribution Thyroid ([6]; 2 h p.i.): 0.19 ± 0.02 %ID/g
- Tumor/liver ratio ([6]; 4 h p.i.): 5.7 ± 0.7
- Biodistribution Blood ([6]; 4 h p.i.): 0.12 ± 0.03 %ID/g
- Biodistribution Bone ([6]; 4 h p.i.): 0.20 ± 0.03 %ID/g
- Biodistribution Heart ([6]; 4 h p.i.): 0.10 ± 0.02 %ID/g
- Biodistribution Intestine ([6]; 4 h p.i.): 1.53 ± 0.31 %ID/g
- Biodistribution Kidneys ([6]; 4 h p.i.): 26.0 ± 3.5 %ID/g
- Biodistribution LNCAP-tumor ([6]; 4 h p.i.): 21.3 ± 1.5 %ID/g
- Biodistribution Liver ([6]; 4 h p.i.): 3.75 ± 0.50 %ID/g
- Biodistribution Lung ([6]; 4 h p.i.): 0.18 ± 0.04 %ID/g
- Biodistribution Muscle ([6]; 4 h p.i.): 0.19 ± 0.03 %ID/g
- Biodistribution Prostate ([6]; 4 h p.i.): 0.60 ± 0.16 %ID/g
- Biodistribution Spleen ([6]; 4 h p.i.): 1.57 ± 0.22 %ID/g
- Biodistribution Thyroid ([6]; 4 h p.i.): 0.20 ± 0.02 %ID/g
Structure (SMILES): COc1nc([18F])ccc1C(=O)NCCCCC(NC(=O)NC(CCC(=O)O)C(=O)O)C(=O)O (stereo not shown) [[^18F]F-JK-PSMA-7]
- Specific internalized activity as percentage of specific cell-bound activity ([4]; 0.5 h): 19.6±1.3 %
- Specific internalized activity as percentage of specific cell-bound activity ([4]; 1 h): 33.9±1.6 %
- Specific internalized activity as percentage of specific cell-bound activity ([4]; 2 h): 44.3±2.5%
- Specific internalized activity as percentage of specific cell-bound activity ([4]; 3 h): 46.0±2.2%
- Specific internalized activity as percentage of specific cell-bound activity ([4]; 5 h): 48.6±0.9 %
- Specific binding in LNCaP cells as percentage of total activity ([5]; 0.5 h): 23.8±0.6 %
- Specific binding in LNCaP cells as percentage of total activity ([5]; 1 h): 32.6±0.4 %
- Specific binding in LNCaP cells as percentage of total activity ([5]; 2 h): 38.8±1.3 %
- Specific binding in LNCaP cells as percentage of total activity ([5]; 3 h): 45.2±1.9 %
- Specific binding in LNCaP cells as percentage of total activity ([5]; 5 h): 45.8±0.4 %

- Kd [2]: 5.15 ± 0.6 nM
- Bmax (maximum achievable concentration on 10^6 tumor cells) [2]: 1746 ± 53 fmol/10^6 cells
- Tumor/blood ratio ([6]; 2 h p.i.): 15 ± 3
- Tumor/kidneys ratio ([6]; 2 h p.i.): 0.09 ± 0.02
- Tumor/liver ratio ([6]; 2 h p.i.): 6.2 ± 1.0
- Tumor/muscle ratio ([6]; 2 h p.i.): 37 ± 8
- Biodistribution Blood ([6]; 2 h p.i.): 1.34 ± 0.20 %ID/g
- Biodistribution Bone ([6]; 2 h p.i.): 1.19 ± 0.31 %ID/g
- Biodistribution Heart ([6]; 2 h p.i.): 1.10 ± 0.36 %ID/g
- Biodistribution Intestine ([6]; 2 h p.i.): 1.50 ± 0.59 %ID/g
- Biodistribution Kidneys ([6]; 2 h p.i.): 231 ± 41 %ID/g
- Biodistribution LNCAP-tumor ([6]; 2 h p.i.): 19.4 ± 2.4 %ID/g
- Biodistribution Liver ([6]; 2 h p.i.): 3.17 ± 0.18 %ID/g
- Biodistribution Lung ([6]; 2 h p.i.): 3.27 ± 1.03 %ID/g
- Biodistribution Muscle ([6]; 2 h p.i.): 0.54 ± 0.15 %ID/g
- Biodistribution Prostate ([6]; 2 h p.i.): 4.09 ± 1.15 %ID/g
- Biodistribution Spleen ([6]; 2 h p.i.): 40.9 ± 9.3 %ID/g
- Biodistribution Thyroid ([6]; 2 h p.i.): 2.13 ± 0.27 %ID/g
- Tumor/kidneys ratio ([6]; 4 h p.i.): 0.10 ± 0.05
- Tumor/liver ratio ([6]; 4 h p.i.): 34.6 ± 6.6
- Biodistribution Blood ([6]; 4 h p.i.): 0.21 ± 0.03 %ID/g
- Biodistribution Bone ([6]; 4 h p.i.): 0.50 ± 0.19 %ID/g
- Biodistribution Heart ([6]; 4 h p.i.): 1.35 ± 0.70 %ID/g
- Biodistribution Intestine ([6]; 4 h p.i.): 0.65 ± 0.30 %ID/g
- Biodistribution Kidneys ([6]; 4 h p.i.): 226 ± 25 %ID/g
- Biodistribution LNCAP-tumor ([6]; 4 h p.i.): 23.2 ± 10.6 %ID/g
- Biodistribution Liver ([6]; 4 h p.i.): 0.65 ± 0.21 %ID/g
- Biodistribution Lung ([6]; 4 h p.i.): 1.23 ± 0.13 %ID/g
- Biodistribution Muscle ([6]; 4 h p.i.): 0.42 ± 0.11 %ID/g
- Biodistribution Prostate ([6]; 4 h p.i.): 1.67 ± 0.37 %ID/g
- Biodistribution Spleen ([6]; 4 h p.i.): 62.5 ± 21.5 %ID/g
- Biodistribution Thyroid ([6]; 4 h p.i.): 4.44 ± 2.9 %ID/g
Structure (SMILES): O=C([O-])CN(CCN(CC(=O)[O-])Cc1cc(CCC(=O)NCCCCCC(=O)NCCCC[C@H](NC(=O)N[C@@H](CCC(=O)O)C(=O)O)C(=O)O)ccc1[O-])Cc1cc(CCC(=O)O)ccc1[O-].[68Ga+3].[OH3+] [[^68Ga]Ga-PSMA-11]
- Specific internalized activity as percentage of specific cell-bound activity ([4]; 0.5 h): 28.9±0.7%
- Specific internalized activity as percentage of specific cell-bound activity ([4]; 1 h): 39.7±2.0%
- Specific internalized activity as percentage of specific cell-bound activity ([4]; 2 h): 48.3±2.5%
- Specific internalized activity as percentage of specific cell-bound activity ([4]; 3 h): 50.5±3.4%
- Specific internalized activity as percentage of specific cell-bound activity ([4]; 5 h): 56.8±2.2 %
- Specific binding in LNCaP cells as percentage of total activity ([5]; 0.5 h): 27.7±0.7%
- Specific binding in LNCaP cells as percentage of total activity ([5]; 1 h): 35.3±3.1 %
- Specific binding in LNCaP cells as percentage of total activity ([5]; 2 h): 42.0±1.2 %
- Specific binding in LNCaP cells as percentage of total activity ([5]; 3 h): 46.3±2.1%
- Specific binding in LNCaP cells as percentage of total activity ([5]; 5 h): 48.3±1.2%

Structure (SMILES): CC(=O)N1CCCCCNC(=O)CCC(=O)N2CCCCCNC(=O)CCC(=O)N(CCCCCNC(=O)CCC(=O)NCC3CCC(C(=O)NC(Cc4ccc5ccccc5c4)C(=O)NCCCCC(NC(=O)NC(CCC(=O)O)C(=O)O)C(=O)O)CC3)[O][Zr+]([O]1)[O]2 (stereo not shown) [[^89Zr]Zr-PSMA-DFO, [^89Zr]Zr-N-sucDf-AMCHA-2Nal-EuK]
- Kd [2]: 4.97 ± 0.57 nM
